# Where two headings read alike, the source gives them in different places.
# Assays:
# [1] = test system: TDH derived from Cupriavidus necator NBRC 102504 (SEQ ID NO: 1) (CnTDH); assay: Substrate specificity of TDH, standard assay; format: biochemical; details: for Relative activity (%) CnTDH: substrate concentration 10 mM, standard assay conditions, L-threonine = 100; for Activity of the enzyme with the coenzyme (in words): as coenzyme
# Experimental: L-threonine oxidation activity was determined by measuring coenzyme NAD^+ reduction at 30° C. and 340 nm. The reaction composition consisted of a total volume of 1 mL and contained L-threonine (final concentration 10 mM), NAD^+ (final concentration 2.5 mM), and glycine-KCl—KOH buffer (100 mM, pH 10.0). The measurement of activity began with the addition of the enzyme. One unit (U) of enzymatic activity was defined as the amount of enzyme producing 1 μmol of NADH per minute under standard conditions.
# TDH was examined using substrates in the form of various L-amino acids, amino alcohols, and alcohols. […]
# [2] = molecular target: PfTDH: TDH from Pyrococcus furiosus (Pyrococcus furiosus, UniProt Q8U259); details: cited from earlier work
# [3] = test system: CsTDH: TDH from Clostridium sticklandii; details: substrate specificity; L-threonine = 100; cited from earlier work
# [4] = test system: CyTDH: TDH from Cytophaga sp. KUC-1; details: substrate specificity; L-threonine = 100; cited from earlier work
# [5] = molecular target: EcTDH: TDH from Escherichia coli K-12 (Escherichia coli, UniProt P07913); details: cited from earlier work
# [6] = test system: Purified TDH derived from Cupriavidus necator NBRC 102504; assay: Effect of metal ions and inhibitors on TDH activity (residual activity); format: biochemical
# [7] = substrate specificity, L-threonine = 100
# [8] = metal ions final concentration 1 mM, 30° C. for 1 hour, relative to enzyme without additives
# [9] = inhibitors final concentration 10 mM, 30° C. for 1 hour
# [10] = inhibitors final concentration 10 mM, 30° C. for 1 hour, None = 100
# PfTDH: TDH from Pyrococcus furiosus, sequence (Q8U259 whole entry): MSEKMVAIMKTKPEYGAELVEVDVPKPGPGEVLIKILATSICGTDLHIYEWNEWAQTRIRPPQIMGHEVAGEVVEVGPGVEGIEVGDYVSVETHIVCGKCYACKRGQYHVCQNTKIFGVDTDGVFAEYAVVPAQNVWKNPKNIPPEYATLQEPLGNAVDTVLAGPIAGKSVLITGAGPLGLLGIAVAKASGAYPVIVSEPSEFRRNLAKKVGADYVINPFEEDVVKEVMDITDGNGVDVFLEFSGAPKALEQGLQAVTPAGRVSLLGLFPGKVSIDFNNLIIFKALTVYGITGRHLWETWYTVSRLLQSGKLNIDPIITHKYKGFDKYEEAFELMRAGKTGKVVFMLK
# EcTDH: TDH from Escherichia coli K-12, sequence (P07913 whole entry): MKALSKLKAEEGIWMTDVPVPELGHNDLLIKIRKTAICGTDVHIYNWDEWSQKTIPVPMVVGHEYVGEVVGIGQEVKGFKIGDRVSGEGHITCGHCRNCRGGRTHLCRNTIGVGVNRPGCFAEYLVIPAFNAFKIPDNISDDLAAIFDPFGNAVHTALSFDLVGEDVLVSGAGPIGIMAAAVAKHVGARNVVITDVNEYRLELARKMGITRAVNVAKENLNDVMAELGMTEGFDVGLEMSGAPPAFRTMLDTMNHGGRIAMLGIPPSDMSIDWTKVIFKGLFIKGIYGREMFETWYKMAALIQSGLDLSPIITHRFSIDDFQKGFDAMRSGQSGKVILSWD
compound,measurement,setting,value
NC(=O)CC[C@H](N)C(=O)O [L-glutamine],Relative activity (%) CnTDH,[1],0%
same,Relative activity (%) PfTDH,[2]; [7],0%
same,Relative activity (%) CsTDH,[3],0%
same,Relative activity (%) CyTDH,[4],0%
N[C@@H](Cc1c[nH]cn1)C(=O)O [L-histidine],Relative activity (%) CnTDH,[1],0%
same,Relative activity (%) PfTDH,[2]; [7],0%
same,Relative activity (%) CsTDH,[3],0%
same,Relative activity (%) CyTDH,[4],0%
CC[C@H](C)[C@H](N)C(=O)O [L-isoleucine],Relative activity (%) CnTDH,[1],0%
same,Relative activity (%) PfTDH,[2]; [7],0%
same,Relative activity (%) CsTDH,[3],0%
same,Relative activity (%) CyTDH,[4],0%
NCCCC[C@H](N)C(=O)O [L-lysine],Relative activity (%) CnTDH,[1],0%
same,Relative activity (%) PfTDH,[2]; [7],0%
same,Relative activity (%) CsTDH,[3],0%
same,Relative activity (%) CyTDH,[4],0%
CSCC[C@H](N)C(=O)O [L-methionine],Relative activity (%) CnTDH,[1],0%
same,Relative activity (%) PfTDH,[2],0%
same,Relative activity (%) CsTDH,[3],0%
same,Relative activity (%) CyTDH,[4],0%
NCCC[C@H](N)C(=O)O [L-ornithine],Relative activity (%) CnTDH,[1],0%
same,Relative activity (%) PfTDH,[2],0%
N[C@@H](Cc1ccccc1)C(=O)O [L-phenylalanine],Relative activity (%) CnTDH,[1],0%
same,Relative activity (%) PfTDH,[2]; [7],0%
same,Relative activity (%) CsTDH,[3],0%
same,Relative activity (%) CyTDH,[4],0%
O=C(O)[C@@H]1CCCN1 [L-proline],Relative activity (%) CnTDH,[1],0%
same,Relative activity (%) PfTDH,[2],0%
same,Relative activity (%) CsTDH,[3],0%
same,Relative activity (%) CyTDH,[4],0%
C[C@@H](O)[C@H](N)C(N)=O [L-threonine amide],Relative activity (%) CnTDH,[1],0%
same,Relative activity (%) CsTDH,[3],0%
same,Relative activity (%) EcTDH,[5],98%
C[C@@H](O)[C@H](N)C(=O)O [L-threonine hydroxide],Relative activity (%) CnTDH,[1],0%
same,Relative activity (%) CsTDH,[3],0%
same,Relative activity (%) EcTDH,[5]; [7],25%
N[C@@H](Cc1c[nH]c2ccccc12)C(=O)O [L-tryptophan],Relative activity (%) CnTDH,[1],0%
same,Relative activity (%) PfTDH,[2]; [7],0%
same,Relative activity (%) CsTDH,[3],0%
same,Relative activity (%) CyTDH,[4],0%
N[C@@H](Cc1ccc(O)cc1)C(=O)O [L-tyrosine],Relative activity (%) CnTDH,[1],0%
same,Relative activity (%) PfTDH,[2]; [7],0%
same,Relative activity (%) CsTDH,[3],0%
same,Relative activity (%) CyTDH,[4],0%
CC(C)[C@H](N)C(=O)O [L-valine],Relative activity (%) CnTDH,[1],0%
same,Relative activity (%) PfTDH,[2]; [7],0%
same,Relative activity (%) CsTDH,[3],0%
same,Relative activity (%) CyTDH,[4],0%
[Cl-].[Li+] [LiCl],Relative activity (residual TDH activity),[6]; [8],109%
[Cl-].[Cl-].[Mg+2] [MgCl2],Relative activity (residual TDH activity),[6]; [8],112%
O=S(=O)([O-])[O-].[Mg+2] [MgSO4],Relative activity (residual TDH activity),[6]; [8],112%
[Cl][Mn][Cl] [MnCl2],Relative activity (residual TDH activity),[6]; [8],102%
O=S(=O)([O-])[O-].[Mn+2] [MnSO4],Relative activity (residual TDH activity),[6]; [8],114%
NC(=O)c1ccc[n+]([C@@H]2O[C@H](COP(=O)([O-])OP(=O)(O)OC[C@H]3O[C@@H](n4cnc5c(N)ncnc54)[C@H](OP(=O)(O)O)[C@@H]3O)[C@@H](O)[C@H]2O)c1 [NADP^+],Activity of the enzyme with the coenzyme (in words),[1],No activity of the enzyme was observed
"NC(=O)c1ccc[n+]([C@@H]2O[C@H](COP(=O)([O-])OP(=O)(O)OC[C@H]3O[C@@H](n4cnc5c(N)ncnc54)[C@H](O)[C@@H]3O)[C@@H](O)[C@H]2O)c1 [NAD^+, nicotinamide adenine dinucleotide]",Activity of the enzyme with the coenzyme (in words),[1],showed the activity
CCN1C(=O)C=CC1=O [NEM],Inhibition of TDH activity (in words),[6]; [9],inhibited
same,Relative activity (%) (residual TDH activity),[6]; [10],0.0%
[Na+].[Na+].[O]=[Mo](=[O])([O-])[O-] [NaMoO4],Relative activity (residual TDH activity),[6]; [8],113%
[N-]=[N+]=[N-].[Na+] [NaN3],Relative activity (%) (residual TDH activity),[6],12%
[Cl][Ni][Cl] [NiCl2],Relative activity (residual TDH activity),[6]; [8],119%
O=C(O)c1cc[c]([Hg][Cl])cc1 [PCMB],Relative activity (%) (residual TDH activity),[6]; [10],6.2%
"COS(=O)(=O)[O-].C[n+]1c2ccccc2nc2ccccc21 [PMS, phenazine methosulfate]",Inhibition of TDH activity (in words),[6]; [9],inhibited
same,Relative activity (%) (residual TDH activity),[6]; [10],0.0%
[Cl][Pb][Cl] [PbCl2],Relative activity (residual TDH activity),[6]; [8],118%
[Cl][Sn][Cl] [SnCl2],Relative activity (residual TDH activity),[6]; [8],84%
NCCS(=O)(=O)O [Taurine],Relative activity (%) CnTDH,[1],0%
[Cl-].[Cl-].[Zn+2] [ZnCl2],Relative activity (residual TDH activity),[6]; [8],105%
O=S(=O)([O-])[O-].[Zn+2] [ZnSO4],Relative activity (residual TDH activity),[6]; [8],109%
OCCS [β-mercaptoethanol],Inhibition of TDH activity (in words),[6]; [9],Nor did the reducing agents β-mercaptoethanol and DTT inhibit enzymatic activity
same,Relative activity (%) (residual TDH activity),[6]; [10],114%
Calcium pantothenate,Inhibition of TDH activity (in words),[6]; [9],slight inhibiting
same,Relative activity (%) (residual TDH activity),[6]; [10],95.0%
CoCl2,Relative activity (residual TDH activity),[6],115%

# From patent publication US8785147B2, “L-threonine analysis method and L-threonine dehydrogenase” (Toyama Prefecture, priority 2010, dated 2014)
